This is an account of results in patent US9485988B2, “Turfgrass fungicide formulation with pigment” (Suncor Energy Inc., priority 2008, dated 2016).

SMILES strings stand for the structures.

Assay type in all cases: in vivo
A short description of assay [1]: Synergy of the formulations when mixed with conventional chemical fungicides. The conditions noted are these: contact fungicide.
The test system of a further assay is tropical sod webworms. In words: Example 29: survival of tropical sod webworm larvae. The method, then:
(§1) • 1) Larvae were obtained from Benzon Research Inc. • 2) 5 larvae/container and 3 containers=1 replication • 3) Treatments=1) Control • 2) 2-pack formulation at 5% dilution • 3) Cyfluthrin (insecticide), Al=0.75%, 3 fl oz/gal H2O (22 mL/L) • 4) Container=760 ml plastic bowl with lid containing moist filter paper on bottom and grass clippings • 5) St. Augustinegrass clippings dipped into respective fungicide treatment, drained to dry and put into container • 6) Hold 4 days at 25° C. and measure survival • 7) 7 replications of small larvae (2-10 mm) tested • 8) 6 replications of medium larvae (11-20 mm) tested • 9) 6 replications of large larvae (21-30 mm) tested • 10) Statistical analysis=Least Significant Difference (LSD) test Results:
Similar testing was conducted to determine the efficacy of embodiments of the 2-pack formulation to kill all sizes larvae (small, medium and large) of tropical sod webworms.

The subject of assay [2] is fall armyworms (Spodoptera frugiperda). In words: Example 29: survival of fall armyworm larvae on treated grass clippings. Conditions: 5 larvae/container, 4 days at 25° C. As for the experimental part: The efficacy of an embodiment of the 2-pack formulation against different larval stages of fall armyworms (Spodoptera frugiperda) was determined under laboratory conditions. Embodiments of the invention were compared to a conventional pesticide Cyfluthrin.
as §1, with “Results: […]” for “Results:”

In the case of `N#Cc1c(Cl)c(Cl)c(Cl)c(C#N)c1Cl` [chlorothalonil], the “synergistic effect when mixed with embodiments of the invention” value in assay [1] is given as “synergistic effect was not observed”.
Take `CC1(C)C(C=C(Cl)Cl)C1C(=O)OC(C#N)c1ccc(F)c(Oc2ccccc2)c1` (stereo not shown) [Cyfluthrin]: the “Mean survival, Large larvae” value in the assay on tropical sod webworms (Large sod webworm larvae) was 0.3 B; in assay [2] (large larvae (21-30 mm)), 0 B. Besides, the “Mean survival, Medium larvae” value (in the assay with tropical sod webworms (Medium sod webworm larvae); in assay [2] (medium larvae (11-20 mm))) was 0 B throughout. The “Mean survival, Small larvae” value (in the assay on tropical sod webworms (Small sod webworm larvae); in assay [2] (small larvae (2-10 mm))) was 0 B throughout.
